This is an account of results in US5679645A, “Sialic acid powder and process for the preparation thereof” (Snow Brand Milk Products Co., Ltd., priority 1993, dated 1997).

A short description of data set [1]: Water content of sialic acid powders (Table 1, comparison of properties). Format: physicochemical. Conditions: for Water content: Table 1.
Data set [2] in a line: Time for complete dissolution in methanol suspension with Dowex 50. Format: physicochemical. Here is the method: A suspension of 10 g of Dowex 50 (trademark, manufactured by Dow Chemical; H+-type, 100-200 mesh, washed with hot methanol) in 100 ml of methanol was prepared. 10 g of Amorphous Powder 1--1, Needles 1--1, or Prisms 1--1 prepared in Example 1 was each charged to the suspension at 25° C. while vigorously stirring. While continuing the stirring at 25° C., the mixture was sampled from time to time to measure the time required for the sialic acids to be dissolved completely to form a clear solution, the degree of reaction, and the final reaction yield. The reaction yield was calculated by HPLC (HPX-87H column, trademark, manufactured by Bio Rad Co.).

Data set [3] is described as follows: Relationship between freezing rate and properties of the freeze-dried powder (degree of crystallization, water content; Table 2). Format: physicochemical. To be noted: 40% by weight aqueous solution. Here is the method:
Relationship between the freezing rate of a sialic acid aqueous solution and properties of the ultimate product was studied. 40% by weight aqueous solution of sialic acids was used and frozen for different periods of time using liquid nitrogen, a cooling shelf, and a freezer, and freeze-dried for 4 days. The degree of crystallization and the water content were measured.

The nature of data set [4]: Solubility in water and organic solvents (statement).
[5] abbreviates: 10 g in 100 ml methanol with 10 g Dowex 50 (H+), 25° C., stirring.
Setting [6] is: time for freezing 1 minute or shorter.
The mark [7] stands for this setting: time for freezing 5 minute or shorter.
[8] abbreviates: time for freezing 10 minute or shorter.
The mark [9] stands for this setting: time for freezing 30 minute or shorter.
Where [10] appears, read: time for freezing 1 hour or shorter.
The mark [11] stands for this setting: time for freezing 3 hours or shorter.

In the case of `CC(=O)N[C@H]1[C@H]([C@H](O)[C@H](O)CO)OC(O)(C(=O)O)C[C@@H]1O` (some centres unmarked) [Amorphous Powder 1-1, sialic acid], the Water content in data set [1] came out at 2.2%. In addition, in data set [2] (setting [5]), the “Time required for complete dissolution” value worked out at 6 min and the “Time required for complete dissolution (in words)” value was “dissolved fastest”.
For the molecule `CC(=O)N[C@H]1[C@H]([C@H](O)[C@H](O)CO)OC(O)(C(=O)O)C[C@@H]1O` (some centres unmarked) [Needles 1-1, sialic acid], the Water content in data set [1] is recorded as 2.1%. Besides, the “Time required for complete dissolution” value in data set [2] (setting [5]) was determined as 27 min.
The molecule `CC(=O)N[C@H]1[C@H]([C@H](O)[C@H](O)CO)OC(O)(C(=O)O)C[C@@H]1O` (some centres unmarked) [Prisms 1-1, sialic acid] had a Water content in data set [1] of 10.9%. The “Crystal water contained in the powder” value in data set [1] (stated in discussion of Table 3) is “about 10%”. For the same molecule, in data set [2] (methanol with Dowex 50, 25° C., 5 hours), the “Complete dissolution after 5 hours (in words)” value is “did not completely dissolved”.
With `CC(=O)N[C@H]1[C@H]([C@H](O)[C@H](O)CO)OC(O)(C(=O)O)C[C@@H]1O` (some centres unmarked) [freeze-dried powder, sialic acid], the Crystallization degree in data set [3] (setting [6]) was 0%; in data set [3] (setting [7]) it was over 0.1%; in data set [3] (setting [8]) it was 0.2-0.4%; in data set [3] (setting [9]), 1.8-2.3%; in data set [3] (setting [10]) it was 9.8-15.1%; in data set [3] (setting [11]), 26-35%. The Water content is 1.1-1.7% in data set [3] (setting [6]); 1.2-1.9% in data set [3] (setting [7]); 1.4-2.1% in data set [3] (setting [8]); 2.4-3.6% in data set [3] (setting [9]); 3.9-4.8% in data set [3] (setting [10]); 5.1-6.2% in data set [3] (setting [11]).
On to `CC(=O)N[C@H]1[C@H]([C@H](O)[C@H](O)CO)OC(O)(C(=O)O)C[C@@H]1O` (some centres unmarked) [sialic acid], for which, in data set [4] (compared with needles), the “Solubility in organic solvents and reactivity (in words)” value is “superiority to such sialic acid needles, in terms of solubility in organic solvents and the reactivity”. The “Solubility in water (in words)” value in data set [4] (compared with needles and prisms) is “more excellent in its solubility in water than both the needles and the prisms”. Also, in data set [1] (compared with needles), the “Water content (in words)” value is given as “very close to those of needles”.
